{
  "source": "paper PMC8885659",
  "about": "“Asymmetric, amphiphilic RGD conjugated phthalocyanine for targeted photodynamic therapy of triple negative breast cancer” (Signal Transduction and Targeted Therapy, 2022)",
  "key": {"4T1 cells [1]": {"test_system": "4T1 cells", "assay": "Cytotoxicity assay (CCK8), phototoxicity and dark toxicity", "type": "cell-based, murine", "conditions": "for Dark toxicity: cell viability without light: no light, CCK8, n = 5", "protocol": "4T1 cells were seeded in a 96-well plate at a density of 10,000 cells/well, and each well was cultured overnight with 200 μL of DMEM medium containing 10% FBS. On the second day, the original medium was discarded and replaced with DMEM medium containing different concentrations of SC or RSP (containing 0.05% CEL). After 4 h of incubation, the cells were incubated with fresh medium and irradiated with a xenon lamp. Then 10 μL of CCK8 was added to each well, and the incubation continued for 1 h. After the incubation, the absorbance value at 450 nm was measured with enzyme labels (Synergy HT, BioTek, USA). At the same time, a blank control was set to determine cell viability. The dark toxicity test method was similar, except that no light was applied to the cells."}, "4T1 cells [2]": {"test_system": "4T1 cells", "assay": "Subcellular co-localization with lysosomes (confocal)", "type": "cell-based, murine", "conditions": "1 μM, 4 h incubation, Lysotracker, n = 3", "protocol": "Subcellular colocalization pictures were taken under a laser confocal microscope (Nikon A1R high-speed confocal laser microscope, Nikon Corporation, Japan). 4T1 cells were cultured in 35 mm cell culture dishes at a density of 20,000 cells/dish, and cultured overnight. After 24 h, the medium was replaced with DMEM medium (containing 0.05% CEL) containing 1 μM RSP or SC. After 4 h of incubation, the plates were washed with PBS and then stained with DMEM medium containing Lysotracker for 30 min and washed again with PBS. Then fixed and counterstained with DAPI. The light was always avoided during the entire operation. The dynamic change of fluorescence on any straight line passing through the whole cell was analyzed by Image J. The result was plot to qualitatively analyze the co-localization situation of lysosome and phthalocyanine. In order to more completely reflect the co-localization of lysosomes and phthalocyanines, the Pearson co-localization coefficient was analyzed on the fluorescence fields of cells obtained from three photographs, and the difference in lysosomal localization of RSP and SC in the cells was quantitatively analyzed."}, "[3]": {"assay": "Biological safety in the PDT study (body weight, H&E of main organs)", "type": "in vivo, Balb/c mice", "conditions": "for Mouse body weight change: all treatment groups with or without light, 2 mg/kg i.v., n = 5", "protocol": "(§1) PDT treatment was performed on the 7th day when the 4T1 tumor model was established in mice, and the average initial tumor volume was 100 mm^3. The test groups were as follows: Group 1: PBS; Group 2: Light; Group 3: SC; Group 4: RSP; Group 5: SC + Light, Group 6: RSP + Light. First, 200 μl of RSP (2 mg/kg), SC (2 mg/kg), and PBS were injected intravenously. 4 h after the injection, the tumor area was irradiated with 671 nm laser (0.1 W/cm^2) for 6 min with a total laser intensity of 36 J/cm^2 and laser treatment was performed on groups 2, 5, and 6. After PDT treatment, the tumor size was measured every day using electronic vernier calipers until 12 days. The maximum width (X) and length (Y) of the tumor were measured, and the following formula was used to calculate the tumor volume: V = (X^2Y)/2. From the first day of treatment, the weight change of each group of mice was recorded until the end of the treatment. Mice in each group were selected randomly, and excised tumors for pathological analysis. In order to investigate the biological safety of this PDT method, after the treatment, the main organs (heart, liver, spleen, lung, kidney) of each group of differently treated mice were dissected, and H&E section staining was performed to evaluate their Pathological changes."}, "4T1 tumor model": {"test_system": "4T1 tumor model", "assay": "In vivo photodynamic activity", "set-up": "species or system Balb/c mice", "conditions": "for Tumor volume without light versus PBS and Light groups: no laser", "protocol": "(§2) Balb/c female mice aged 6 to 8 weeks were purchased from Beijing Weitong Lihua Laboratory Animal Technology. All animal experiments were performed under protocols approved by the Institutional Animal Care and Use Committee (IACUC) of Peking University. In situ breast cancer tumor models were established by injecting 2 * 10^7 4T1-luci tumor cells under the fourth pair of mammary glands in mice. Treatment was initiated approximately 6 days after inoculation when the tumor volume grew to approximately 100 mm^3.\nas §1"}, "[4]": {"assay": "Singlet oxygen yield detection with DPBF", "type": "physicochemical", "conditions": "physiological saline containing 1% CEL; for Slope of DPBF bleaching (singlet oxygen yield): laser 610 nm, 225 mW/cm^2, DPBF absorbance at 414 nm", "from_the_text": "Generation of singlet oxygen was detected chemically using the disodium salt of 1,3-diphenylisobenzofuran (DPBF) as a singlet oxygen sensor. DPBF is bleached by singlet oxygen to its corresponding endoperoxide. The reaction was monitored spectrophotometrically by recording the decrease in optical density at 414 nm. The bleaching rate of DPBF can also be used as a method to compare the yield of singlet oxygen. In the actual measurement of singlet oxygen yield, a certain amount of DPBF ethanol solution and test solution are mixed together in a dark room. A rotor is added to the cuvette, and the laser is irradiated for different times while stirring. The absorption spectra of the mixed solution was tested after different time of irradiation with an ultraviolet spectrophotometer, then the change of the absorption value of DPBF at 414 nm was obtained."}, "[5]": {"assay": "Blood circulation dynamics and organ distribution", "type": "in vivo, Balb/c mice", "protocol": "The ideal targeted photosensitizer should be able to quickly accumulate at the tumor site and metabolize from normal organs after injection. […] After 24 h, 48 h, and 120 h of RSP injection, the major organs of the mice were dissected and their fluorescence was quantified.\nIn order to investigate the blood clearance rate of RSP, healthy male Balb/c mice were selected as experimental subjects, and blood was collected from the orbit to detect the drug concentration in the body at different time points. Fluorescence labeled Organism Bioimaging Instrument (FOBI, South Korea) was used to measure the relative concentration of phthalocyanine in mouse plasma. Mice were injected with RSP through the tail vein at a dose of 2 mg/kg. At different time intervals, blood samples were collected from the orbits of mice with capillary tubes coated with heparin, placed on ice, and centrifugated to separate blood cells (3000 g, 10 min). The resulting plasma samples were analyzed for phthalocyanine concentration."}, "[6]": {"assay": "Photostability under laser irradiation", "type": "physicochemical", "conditions": "4 mins of laser irradiation, 225 mW/cm^2, UV-vis absorption", "protocol": "In order to better simulate the situation of photosensitive molecules in practical applications, the singlet oxygen yield of RSP in physiological saline containing 1% CEL was measured (Fig. 2c). The slope of RSP and SC was 0.06481 and 0.07165 respectively (Supplementary Fig. 6). […] We further determined the photostability of RSP. […] The axial modification of RSP helped to improve the stability of the phthalocyanine parent ring when singlet oxygen was generated, so that it was less prone to degrade."}, "[7]": {"assay": "Solubility and aggregation state (absorption spectra)", "type": "physicochemical", "from_the_text": "Therefore, we dissolved RSP in physiological saline containing 1% CEL, DMEM medium containing 0.05% CEL, and DMF (as a control) to measure its absorption and fluorescence spectrum. […] RSP had the characteristics of not being aggregated in physiological saline and cell culture media, which provides a basis for further investigation of its phototoxicity."}, "4T1 cells [8]": {"test_system": "4T1 cells", "assay": "Apoptosis/necrosis by flow cytometry after TPDT", "type": "cell-based, murine", "conditions": "500 nM, 4 h incubation, with light", "protocol": "The apoptosis rate and necrosis rate of the cells were detected on the flow cytometer according to the operating procedure of the apoptosis detection kit. 4T1 cells were seeded in a six-well plate at a density of 5 * 10^5 cells/well overnight. On the second day, the medium was changed to DMEM medium containing 500 nM RSP/SC and 1% CEL, and the cells were incubated for 4 h. Then the medium was replaced with fresh DMEM. The cells were applied light/ no light, and then digested."}, "4T1 tumor": {"test_system": "4T1 tumor", "assay": "In vivo fluorescence imaging of tumor targeting", "set-up": "species or system Balb/c mice", "protocol": "as §2\nFor in vivo fluorescence imaging, RSP or SC dissolved in physiological saline (containing 1% CEL) was injected intravenously at a dose of 2 mg/kg into tumor-bearing mice (both in situ and subcutaneous models). Then IVIS Spectrum In Vivo Imaging System (PerkinElmer) was utilized to collect the fluorescence signals of RSP (660 nm/710 nm) in subcutaneous models at different times after the injection. The small animal fluorescence imaging system was used for in situ tumor-bearing mice imaging, taking pictures, and recording. The excitation wavelength was 660 nm, and the fluorescence signal was collected with a 700 nm filter. Then, the FOBI software was used to process the data to analyze the enrichment of phthalocyanines in the tumors of the mice after different injection times. The mice after 24 h fluorescence imaging were sacrificed, and the hearts, livers, spleens, lungs, kidneys, and tumors were collected for analysis of fluorescence semiquantitative biodistribution."}, "[9]": {"conditions": "RSP + light (RSPL), tumor sections, n = 3"}, "[10]": {"conditions": "subcutaneous tumor model, 2 mg/kg tail vein, n = 3"}},
  "data": [
    {"molecule": "2[4-(3-carboxypropyl)phenoxy]silicon phthalocyanine [SC]", "values": [
      {"measurement": "Dark toxicity: cell viability without light", "setting": "4T1 cells [1]", "value": "did no significantly decreased"},
      {"measurement": "Lysosomal colocalization index (Pearson co-localization coefficient)", "setting": "4T1 cells [2]", "value": 0.38},
      {"measurement": "Mouse body weight change", "setting": "[3]", "value": "no significant changes"},
      {"measurement": "Tumor volume without light versus PBS and Light groups", "setting": "4T1 tumor model; 2 mg/kg i.v., n = 5", "value": "no significant difference"},
      {"measurement": "Inhibition of tumor cell proliferation with light, in words", "setting": "4T1 tumor model; SC + light, 2 mg/kg i.v., 671 nm laser 36 J/cm^2, tumor weight, n = 5", "value": "not significantly inhibited"},
      {"measurement": "Slope of DPBF bleaching (singlet oxygen yield)", "setting": "[4]", "value": 0.07165}
    ]},
    {"molecule": "N=C(N)NCCC[C@@H]1NC(=O)[C@H](CCCCNC(=O)CCc2ccc(O[Si]3(Oc4ccc(CCC(=O)O)cc4)n4c5c6ccccc6c4N=C4N=C(N=c6c7ccccc7c(n63)=NC3=NC(=N5)c5ccccc53)c3ccccc34)cc2)NC(=O)[C@@H](Cc2ccc(O)cc2)NC(=O)[C@H](CC(=O)O)NC(=O)CNC1=O", "note": "(stereo partly shown) [RSP, cRGDyK modified targeting silicon phthalocyanine]", "values": [
      {"measurement": "plasma half-life (t1/2α)", "value": 45, "unit": "min"},
      {"measurement": "Elimination half-time (t1/2β)", "setting": "[5]; healthy male Balb/c mice, 2 mg/kg tail vein, plasma fluorescence (FOBI)", "value": 463.02, "unit": "min"},
      {"measurement": "Fluorescence of main organs 120 h after injection", "setting": "[5]; mice, 2 mg/kg intravenous, 120 h, n = 3", "value": "no obvious fluorescent signal can be detected"},
      {"measurement": "Fraction metabolized in 48 h", "setting": "[5]; mice, 2 mg/kg intravenous, fluorescence of main organs, n = 3", "value": "more than 90%"},
      {"measurement": "Dark toxicity: cell viability without light", "setting": "4T1 cells [1]", "value": "did no significantly decreased"},
      {"measurement": "Killing effect upon exposure to light compared with SC", "setting": "4T1 cells [1]; λ > 610 nm, 48 J/cm^2, 0 to 2 μM", "value": "lower killing effect"},
      {"measurement": "Absorbance at maximum absorption wavelength remaining after irradiation (photostability)", "setting": "[6]", "value": "about 80%"},
      {"measurement": "Solubility in aqueous solutions with Cremophor EL", "setting": "[7]; aqueous solutions with 1 % Cremophor EL (CEL)", "value": "good solubility"},
      {"measurement": "Aggregation state from absorption spectra", "setting": "[7]; physiological saline containing 1% CEL and DMEM medium containing 0.05% CEL, compared with DMF", "value": "remained monomer"},
      {"measurement": "Solubility in pure water", "setting": "[7]; pure water", "value": "limited solubility"},
      {"measurement": "Increase of apoptotic rate compared with SC", "setting": "4T1 cells [8]", "value": 9.73, "unit": "%"},
      {"measurement": "Lysosomal colocalization index (Pearson co-localization coefficient)", "setting": "4T1 cells [2]", "value": 0.78},
      {"measurement": "H&E pathology of heart, liver, spleen, lung and kidney", "setting": "[3]; after treatment, RSP injection and laser irradiation", "value": "no obvious pathological phenomena"},
      {"measurement": "Mouse body weight change", "setting": "[3]", "value": "no significant changes"},
      {"measurement": "Tumor volume without light versus PBS and Light groups", "setting": "4T1 tumor model; 2 mg/kg i.v., n = 5", "value": "no significant difference"},
      {"measurement": "Apoptosis in tumor tissue (TUNEL) relative to SCL group", "setting": "4T1 tumor model; [9]", "value": "twice that of SCL group"},
      {"measurement": "Ki67 proliferation signal as % of PBS control group", "setting": "4T1 tumor model; [9]", "value": 10, "unit": "%"},
      {"measurement": "Ki67 proliferation signal as fraction of SCL group", "setting": "4T1 tumor model; [9]", "value": "1/4"},
      {"measurement": "Fluorescence signal of excised tumor, relative to SC (semiquantitative)", "setting": "4T1 tumor; organs and tumors dissected 24 h after injection, 2 mg/kg, n = 3", "value": "four folds higher than that of SC"},
      {"measurement": "Fluorescence intensity in orthotopic mouse tumors, folds of control", "setting": "4T1 tumor; orthotopic mouse tumors, as worded in the introduction", "value": 4, "unit": "folds"},
      {"measurement": "Onset of tumor accumulation after injection", "setting": "4T1 tumor; [10]", "value": "≤ 0.5", "unit": "h"},
      {"measurement": "Time of peak tumor fluorescence intensity after injection", "setting": "4T1 tumor; [10]", "value": 6, "unit": "h"},
      {"measurement": "Fluorescence intensity of tumor site in vivo, folds of SC", "setting": "4T1 tumor; subcutaneous tumor model, 2 mg/kg, 24 h after injection, n = 3", "value": 2.5, "unit": "folds"},
      {"measurement": "Decrease of singlet oxygen yield relative to SC", "setting": "[4]", "value": 10, "unit": "%"},
      {"measurement": "Slope of DPBF bleaching (singlet oxygen yield)", "setting": "[4]", "value": 0.06481}
    ]}
  ]
}
